Measurements: patent US10618901B2 (GlaxoSmithKline Intellectual Property Development Limited, priority 2014, dated 2020)

Molecular target: T1, 6HIS-Tev-LRRK2 (1326-2527) (Homo sapiens, UniProt Q5S007)
T1 construct: A LRRK2 cDNA encoding residues 1326-2527 was received from Dundee University; made in house; host or cells: Spodoptera frugiperda Sf9 (baculovirus, pFB-HTb)
T1 sequence (Q5S007 1326-2527): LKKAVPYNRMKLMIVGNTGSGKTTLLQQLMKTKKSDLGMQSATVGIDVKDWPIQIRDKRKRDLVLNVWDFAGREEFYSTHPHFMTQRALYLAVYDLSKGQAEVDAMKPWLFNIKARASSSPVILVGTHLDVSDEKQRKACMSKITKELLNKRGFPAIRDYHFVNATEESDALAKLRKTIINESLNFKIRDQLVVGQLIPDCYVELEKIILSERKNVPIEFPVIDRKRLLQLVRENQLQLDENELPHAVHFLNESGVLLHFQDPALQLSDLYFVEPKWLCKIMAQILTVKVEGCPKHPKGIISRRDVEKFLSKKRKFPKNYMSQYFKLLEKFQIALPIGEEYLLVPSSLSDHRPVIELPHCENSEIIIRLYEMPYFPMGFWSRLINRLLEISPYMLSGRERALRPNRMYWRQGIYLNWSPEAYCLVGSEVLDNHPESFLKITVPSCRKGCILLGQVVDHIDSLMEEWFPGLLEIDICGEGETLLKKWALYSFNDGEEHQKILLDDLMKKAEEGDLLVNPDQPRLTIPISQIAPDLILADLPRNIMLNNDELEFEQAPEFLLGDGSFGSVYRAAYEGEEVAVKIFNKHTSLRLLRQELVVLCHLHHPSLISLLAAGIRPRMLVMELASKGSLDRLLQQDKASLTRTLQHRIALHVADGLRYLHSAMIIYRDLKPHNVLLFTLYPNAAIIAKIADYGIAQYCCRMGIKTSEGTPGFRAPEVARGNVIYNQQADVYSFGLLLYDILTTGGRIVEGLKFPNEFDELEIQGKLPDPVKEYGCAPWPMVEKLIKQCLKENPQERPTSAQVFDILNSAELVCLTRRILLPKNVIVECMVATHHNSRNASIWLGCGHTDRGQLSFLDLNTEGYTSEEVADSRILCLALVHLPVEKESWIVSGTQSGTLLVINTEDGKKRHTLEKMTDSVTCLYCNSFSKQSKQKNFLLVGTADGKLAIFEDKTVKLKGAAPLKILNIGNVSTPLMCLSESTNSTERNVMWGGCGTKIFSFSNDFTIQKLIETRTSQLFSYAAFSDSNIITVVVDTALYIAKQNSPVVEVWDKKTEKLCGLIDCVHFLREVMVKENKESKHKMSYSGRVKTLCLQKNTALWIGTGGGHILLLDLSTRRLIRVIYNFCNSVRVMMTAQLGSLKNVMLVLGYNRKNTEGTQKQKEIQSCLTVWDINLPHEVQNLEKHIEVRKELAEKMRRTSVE
Experiment: LRRK2 Inhibition Mass Spectrometry Assay
Format: biochemical
Details: 60 nM LRRK2 enzyme; 25 uM LRRKtide; 20 uM ATP; read-out: LRRK2 Inhibition Mass Spectrometry Assay (pIC50) (converted)
Experimental: A LRRK2 cDNA encoding residues 1326-2527 was received from Dundee University (described in M. Jaleel et al., 2007, Biochem J, 405: 407-417). This gene fragment was subcloned into pFB-HTb (Invitrogen) using BamHI and NotI restriction sites. The LRRK2 plasmid was recombined into the baculovirus genome according to the BAC-to-BAC protocol described by Invitrogen. Transfection into Spodoptera frugiperda (Sf9) insect cells was performed using Cellfectin (Invitrogen), according to the manufacturer's protocol to generate P1 and P2 baculovirus stocks.
Sf9 cells were grown in HyClone SFX (Thermo Scientific) growth media at 27° C., 80 rpm in shake flask until of a sufficient volume to inoculate a bioreactor. The cells were grown in a 20 liter working volume Wave bioreactor (GE Healthcare) at 27° C., 50% dissolved oxygen and an agitation rate 22 rocks per minute, 10 degree rock angle, 200 ml/min air with a cell concentration of approximately 6×e6 cells/ml. The cells were infected with P2 Baculovirus at a multiplicity of infection (MOI) of 3. The cultivation was continued for a 48 hour expression phase. The infected cells were removed from the growth media by centrifugation at 2500 g using a Sorvall RC 3C Plus centrifuge at 2500 g for 20 minutes. The cell pellet was immediately frozen and subsequently supplied for purification.
A 260 g pellet was allowed to thaw in a water bath at 27° C. with 800 ml lysis buffer/buffer A (50 mm Tris-HCl pH 8.5, 300 mM NaCl, 1 mm DTT, 10% glycerol, 1 ml/L calbiochem complete protease inhibitor cocktail and benzonase (50 ul/800 ml)) before being dounce homogenised on ice using 20 strokes per 100 ml. The suspension was packed in ice and sonicated at 50% amplitude for 3 min 10 sec on/off using a ¾″ probe. The suspension was then centrifuged at 100,000 g for 90 min, at 4° C.
The lysate (700 ml) was decanted from the insoluble pellet and contacted for 3 h at 4 C with 10 ml His bind Ni NTA resin by end over end mixing. The resin was recovered by centrifugation, 3000 g, 5 min at 4 C, and packed in an XK16 column. The column was then washed with 10 column volumes buffer A, 10 column volumes buffer B (buffer A+1M NaCl) and 10 column volumes buffer C (buffer A+20 mM imidazole). The column was then eluted with 15 column volumes buffer D (buffer A+300 mM imidazole) collecting 2 ml fractions. All washes and elution were conducted at 4 ml/min.
Fractions identified by SDS-PAGE as containing protein of interest were pooled and loaded directly onto a 320 ml SEC Superdex 200 pg column that was pre-equilibrated with buffer E (50 mM Tris-HCl pH 8.5, 300 mM NaCl, 10% glycerol, 1 mM DTT). The column was loaded and eluted with 1.2 column volumes buffer E at 2 ml/min collecting 2 ml fractions. Fractions identified by SDS-PAGE as containing protein of interest were tested for activity.
Production of LRRKtide for LRRK2 Inhibition Mass Spectrometry Assay
The ‘LRRKtide’ peptide H-RLGRDKYKTLRQIRQ-OH was synthesized as follows. The protected peptide was assembled on a solid-phase synthesiser using preloaded Wang resin and utilising standard Fmoc synthesis protocols. The crude peptide was obtained after cleavage from the resin with a mixture of trifluoroacetic acid (TFA), triisopropylsilane and water (95:2.5:2.5) for 3 hours at room temperature and was then purified using a C18 reverse-phase column utilising a 0.1% TFA-buffered water/acetonitrile gradient. The resulting fractions were analysed and fractions which were >95% pure by analytical HPLC and giving the correct molecular weight (mw) (by MALDiTOF mass spectroscopy) were pooled and freeze dried. The final material was analysed by HPLC and MALDiTOF mass spectroscopy.
LRRK2 Inhibition Mass Spectrometry Assay
This assay for Leucine Rich Repeat Kinase 2 (LRRK2) inhibition is based on the direct measurement of the peptide ‘LRRKtide’ (LRRKtide: RLGRDKYKT*LRQIRQ (H-RLGRDKYKTLRQIRQ-OH used for this screen)) and phosphorylated ‘LRRKtide’ using a high throughput RapidFire mass spectrometry assay. […]

| IC50 [nM] | Compound |
| --- | --- |
| 10 | CCOc1nc(Nc2cnn(C3CCOCC3C)c2C)nc2[nH]ccc12 (single isomer, unassigned) [Example E113, (cis)-4-ethoxy-N-(5-methyl-1-(3-methyltetrahydro-2H-pyran-4-yl)-1H-pyrazol-4-yl)-7H-pyrrolo[2,3-d]pyrimidin-2-amine] |
| 7.94 | CCOc1nc(Nc2cnn(CCN3CCO[C@H](C(F)F)C3)c2C)nc2[nH]ccc12 [Example E100, (S)—N-(1-(2-(2-(difluoromethyl)morpholino)ethyl)-5-methyl-1H-pyrazol-4-yl)-4-ethoxy-7H-pyrrolo[2,3-d]pyrimidin-2-amine] |
| 10 | CCOc1nc(Nc2cnn(C3CN(C)CCC3(F)F)c2C)nc2[nH]ccc12 (single isomer, unassigned) [Example E121, N-(1-(4,4-difluoro-1-methylpiperidin-3-yl)-5-methyl-1H-pyrazol-4-yl)-4-ethoxy-7H-pyrrolo[2,3-d]pyrimidin-2-amine] |
| 7.94 | CCOc1nc(Nc2cnn([C@H]3CCN(C4COC4)C[C@@H]3F)c2Cl)nc2[nH]ccc12 (single isomer, unassigned) [Example E104] |
| 7.94 | CCOc1nc(Nc2cnn(C3CCN(C4COC4)CC3(F)F)c2Cl)nc2[nH]ccc12 (single isomer, unassigned) [Example E134, N-(5-chloro-1-(3,3-difluoro-1-(oxetan-3-yl)piperidin-4-yl)-1H-pyrazol-4-yl)-4-ethoxy-7H-pyrrolo[2,3-d]pyrimidin-2-amine] |
| 10 | CCOc1nc(Nc2cnn(C3CC(N4CCOCC4)C3)c2C)nc2[nH]ccc12 (stereo not drawn) [Example E86, 4-ethoxy-N-(5-methyl-1-(3-morpholinocyclobutyl)-1H-pyrazol-4-yl)-7H-pyrrolo[2,3-d] pyrimidin-2-amine] |
| 10 | CCOc1nc(Nc2cnn(C3CN(C4COC4)CCC3(F)F)c2Cl)nc2[nH]ccc12 (single isomer, unassigned) [Example E124, N-(5-chloro-1-(4,4-difluoro-1-(oxetan-3-yl)piperidin-3-yl)-1H-pyrazol-4-yl)-4-ethoxy-7H-pyrrolo[2,3-d]pyrimidin-2-amine] |
| 7.94 | CCOc1nc(Nc2cnn([C@@H]3CCN(C4COC4)C[C@H]3F)c2Cl)nc2[nH]ccc12 (single isomer, unassigned) [Example E105] |
| 7.94 | CCOc1nc(Nc2cnn(C3CN(C4COC4)CCO3)c2Cl)nc2[nH]ccc12 (single isomer, unassigned) [Example E141, N-(5-chloro-1-(4-(oxetan-3-yl)morpholin-2-yl)-1H-pyrazol-4-yl)-4-ethoxy-7H-pyrrolo[2,3-d]pyrimidin-2-amine] |
